≈ marks a conversion by molar mass, not a printed value.
Legend:
Assay type in all cases: functional
[1] = system: Moraxella catarrhalis; assay: Antibacterial activity against Moraxella catarrhalis ATCC25238 assessed as inhibition of bacterial growth by broth microdilution method
[2] = system: Staphylococcus epidermidis; assay: Antibacterial activity against Staphylococcus epidermidis ATCC14990 assessed as inhibition of bacterial growth by broth microdilution method
[3] = system: Staphylococcus aureus; assay: Antibacterial activity against Staphylococcus aureus ATCC12600 assessed as inhibition of bacterial growth by broth microdilution method
[4] = system: Streptococcus mutans; assay: Antibacterial activity against Streptococcus mutans ATCC25175 assessed as inhibition of bacterial growth by broth microdilution method

MIC [1]: 2.1 µg/mL (≈ 7.13 µM)
MIC [2]: 2.1 µg/mL (≈ 7.13 µM)
MIC [3]: 2.1 µg/mL (≈ 7.13 µM)
MIC [4]: 2.1 µg/mL (≈ 7.13 µM)
SMILES: CCCCCCCc1cc(O)c(CCCCCC)c(=O)o1 [PSEUDOPYRONINES B]
